{"source": "patent US6576671B1", "about": "“Aminotetralin derivatives for the therapy of cardiovascular diseases” (Chiese Farmaceutici S.p.A., priority 1999, dated 2003)", "key": {"anesthetized rats": {"system": "anesthetized rats", "test": "In vivo cardiovascular effects in anesthetized rats", "set-up": "species or system rat", "experimental": "Male albino rats (Sprague Dawley, 350-400 g) were anesthetized by sodium pentobarbital (60 mg/kg) and maintained by i.v. infusion (6 mg/h). The trachea was cannulated to facilitate spontaneous respiration and body temperature was maintained at 37 C. Homoiothermic Blanket Control System (Harvard, England).\nThe right femoral artery was cannulated for arterial blood pressure measurement and left jugular vein or duodenum were cannulated for drug administration. Mean arterial pressure and heart rate were continuously monitored by pressure transducer and medium gain amplifier triggered by the ECG signal, respectively. […]\nCHF 1035 was administered intraduodenally (1 mg/kg).\nThe response to […] was determined in the absence and in the presence of the selective β2-adrenoceptor antagonist ICI 118.551 (0.2 mg/kg i.v.) and the selective DA2-dopaminergic antagonist domperidone (0 3 mg/kg i.v.) both alone and in combination. The antagonists were administered 10 min before the i.d. drug administration."}, "[1]": {"test": "Pharmacological and clinic pharmacological studies of diuresis", "settings": "in vivo"}, "[2]": {"biological_target": "peripheral DA2 dopaminergic receptors (Oryctolagus cuniculus, UniProt G1T1Q0)", "sequence (G1T1Q0 1-443)": "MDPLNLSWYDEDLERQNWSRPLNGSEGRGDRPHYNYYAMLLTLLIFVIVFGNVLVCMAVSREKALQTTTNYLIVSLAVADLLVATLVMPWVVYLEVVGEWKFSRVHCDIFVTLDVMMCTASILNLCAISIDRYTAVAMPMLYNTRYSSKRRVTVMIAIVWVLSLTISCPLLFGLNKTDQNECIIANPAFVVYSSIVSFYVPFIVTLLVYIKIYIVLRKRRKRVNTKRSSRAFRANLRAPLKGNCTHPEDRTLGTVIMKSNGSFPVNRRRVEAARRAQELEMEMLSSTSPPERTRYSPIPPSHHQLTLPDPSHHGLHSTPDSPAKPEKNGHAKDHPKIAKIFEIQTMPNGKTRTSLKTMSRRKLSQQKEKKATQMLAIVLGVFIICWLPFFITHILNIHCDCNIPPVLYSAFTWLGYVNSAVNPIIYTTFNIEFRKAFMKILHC", "test": "Peripheral DA2 dopaminergic activity in electrically stimulated rabbit rectococcygeus muscle", "text": "The activity of CHF 1024 and CHF 1035 on peripheral DA2 dopaminergic receptors has been tested in the electrically stimulated rabbit rectococcygeus muscle."}}, "data": [{"molecule": "CNC1CCc2c(ccc(OC(=O)C(C)C)c2OC(=O)C(C)C)C1", "note": "(stereo not drawn) [CHF 1035, 5,6-Diisobutyroyloxy-2-methylaminotetralin]", "values": [{"measurement": "peak hypotensive effect after pretreatment with the β2-antagonist", "setting": "anesthetized rats; 1 mg/kg i.d., ICI 118.551 0.2 mg/kg i.v. 10 min before", "result": "significantly reduced"}, {"measurement": "hypotensive response after both antagonists combined", "setting": "anesthetized rats; 1 mg/kg i.d., ICI 118.551 and domperidone", "result": "completely abolished"}, {"measurement": "time to complete recovery of basal value after DA2-antagonist pretreatment", "setting": "anesthetized rats; 1 mg/kg i.d., domperidone i.v. 10 min before, hypotensive response significantly shortened", "result": 60, "unit": "min"}, {"measurement": "hypotensive response, peak effect, reduction from basal value", "setting": "anesthetized rats; 1 mg/kg intraduodenal, 5 min after administration", "result": "about 45%"}, {"measurement": "hypotensive response, reduction from basal value", "setting": "anesthetized rats; 1 mg/kg intraduodenal, 2 hours after administration", "result": "about 20%"}, {"measurement": "blood pressure", "setting": "anesthetized rats; intraduodenal, 1 mg/kg", "result": "markedly reduced"}, {"measurement": "heart rate", "setting": "anesthetized rats; intraduodenal, 1 mg/kg", "result": "without affecting"}, {"measurement": "diuresis", "setting": "[1]", "result": "increases"}, {"measurement": "natriuresis and kaliuresis", "setting": "[1]", "result": "without affecting"}, {"measurement": "effect in presence of selective DA2-antagonist domperidone", "setting": "[2]", "result": "competitively antagonized"}, {"measurement": "more potent than dopamine", "setting": "[2]", "result": "approximately 3 times"}, {"measurement": "IC50", "setting": "[2]; read-out: IC50, 50% inhibition of the electrically induced contraction", "result": 29.6, "unit": "nM"}]}]}
